pEC50: −log10 of the molar value.
Biological target: T1, human GLP-1 receptor (Homo sapiens, UniProt P43220)
T1 construct: expressed in transfected cells
Assay: GLP-1R cAMP Assay
Type: cell-based
Settings: cAMP accumulation in CHO cells stably overexpressing the human GLP-1 receptor; 30 min treatment; HitHunter cAMP kit; read-out: EC50
Method in brief: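 Luminescent enzyme-complementation detection of cAMP, read after cell lysis and overnight incubation, with dose-response curve fitting. Stimulation lasted 30 min, using 20-point triplicate dosing on CHO cells (10,000 per well) stably overexpressing human GLP-1R.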

T1 sequence (P43220 24-463): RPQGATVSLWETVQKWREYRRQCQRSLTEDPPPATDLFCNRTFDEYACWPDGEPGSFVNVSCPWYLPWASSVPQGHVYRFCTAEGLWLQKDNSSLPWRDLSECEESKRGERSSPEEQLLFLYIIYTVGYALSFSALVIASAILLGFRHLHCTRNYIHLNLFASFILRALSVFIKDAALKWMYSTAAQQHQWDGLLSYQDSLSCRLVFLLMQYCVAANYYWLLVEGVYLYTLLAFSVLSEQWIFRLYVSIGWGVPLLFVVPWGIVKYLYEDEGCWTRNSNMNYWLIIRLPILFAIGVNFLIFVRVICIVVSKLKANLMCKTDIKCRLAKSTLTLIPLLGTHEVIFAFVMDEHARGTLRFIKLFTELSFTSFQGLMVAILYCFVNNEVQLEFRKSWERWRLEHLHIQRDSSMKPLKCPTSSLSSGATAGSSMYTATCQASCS

pEC50	Structure (SMILES)
> 7.30	O=C(O)c1ccc2nc(CN3CCC(Oc4cc(COc5ccc(Cl)cc5F)ncc4F)CC3)n(C[C@@H]3CCO3)c2c1 [Compound 380, (S)-2-((4-((2-((4-chloro-2-fluorophenoxy)methyl)-5-fluoropyridin-4-yl)oxy)piperidin-1-yl)methyl)-1-(oxetan-2-ylmethyl)-1H-benzo[d]imidazole-6-carboxylic acid]
> 7.30	O=C(O)c1ccc2nc(CN3CCC(Oc4ccnc(COc5ccc(C6CC6)cc5F)n4)CC3)n(C[C@@H]3CCO3)c2c1 [Compound 475, 2-{[4-({2-[(4-cyclopropyl-2-fluorophenoxy)methyl]pyrimidin-4-yl}oxy)piperidin-1-yl]methyl}-1-{[(2S)-oxetan-2-yl]methyl}-1H-1,3-benzodiazole-6-carboxylic acid]
> 7.30	N#Cc1cc(C2CC2)ccc1OCc1nccc(OC2CCN(Cc3nc4ccc(C(=O)O)cc4n3C[C@@H]3CCO3)CC2)n1 [Compound 476, 2-{[4-({2-[(2-cyano-4-cyclopropylphenoxy)methyl]pyrimidin-4-yl}oxy)piperidin-1-yl]methyl}-1-{[(2S)-oxetan-2-yl]methyl}-1H-1,3-benzodiazole-6-carboxylic acid]
> 7.30	C[C@H]1C[C@@H](Oc2ccnc(COc3ccc(C#N)cc3Cl)n2)CCN1Cc1nc2ccc(C(=O)O)cc2n1C[C@@H]1CCO1 [Compound 477, 2-{[(2S,4S)-4-({2-[(2-chloro-4-cyanophenoxy)methyl]pyrimidin-4-yl}oxy)-2-methylpiperidin-1-yl]methyl}-1-{[(2S)-oxetan-2-yl]methyl}-1H-1,3-benzodiazole-6-carboxylic acid]
> 7.30	N#Cc1ccc(OCc2cc(OC3CCN(Cc4nc5c(F)cc(C(=O)O)cc5n4C[C@@H]4CCO4)CC3)c(F)cn2)c(F)c1 [Compound 478, 2-{[4-({2-[(4-cyano-2-fluorophenoxy)methyl]-5-fluoropyridin-4-yl}oxy)piperidin-1-yl]methyl}-4-fluoro-1-{[(2S)-oxetan-2-yl]methyl}-1H-1,3-benzodiazole-6-carboxylic acid]
> 7.30	O=C(O)c1ccc2nc(CN3CCC(Oc4ccnc(COc5ccc(F)cc5F)n4)CC3)n(C[C@@H]3CCO3)c2c1 [Compound 479, 2-{[4-({2-[(2,4-difluorophenoxy)methyl]pyrimidin-4-yl}oxy)piperidin-1-yl]methyl}-1-{[(2S)-oxetan-2-yl]methyl}-1H-1,3-benzodiazole-6-carboxylic acid]
> 7.30	N#Cc1cc(Cl)ccc1OCc1nccc(OC2CCN(Cc3nc4ccc(C(=O)O)cc4n3C[C@@H]3CCO3)CC2)n1 [Compound 481, 2-{[4-({2-[(4-chloro-2-cyanophenoxy)methyl]pyrimidin-4-yl}oxy)piperidin-1-yl]methyl}-1-{[(2S)-oxetan-2-yl]methyl}-1H-1,3-benzodiazole-6-carboxylic acid]
> 7.30	O=C(O)c1cc(F)c2nc(CN3CCC(Oc4ccnc(COc5ccc(F)cc5F)n4)CC3)n(C[C@@H]3CCO3)c2c1 [Compound 482, 2-{[4-({2-[(2,4-difluorophenoxy)methyl]pyrimidin-4-yl}oxy)piperidin-1-yl]methyl}-4-fluoro-1-{[(2S)-oxetan-2-yl]methyl}-1H-1,3-benzodiazole-6-carboxylic acid]
> 7.30	Cc1cc(C(=O)O)cc2c1nc(CN1CCC(Oc3ccnc(COc4ccc(C#N)cc4F)n3)CC1)n2C[C@@H]1CCO1 [Compound 484, 2-{[4-({2-[(4-cyano-2-fluorophenoxy)methyl]pyrimidin-4-yl}oxy)piperidin-1-yl]methyl}-4-methyl-1-{[(2S)-oxetan-2-yl]methyl}-1H-1,3-benzodiazole-6-carboxylic acid]
> 7.30	C[C@H]1C[C@@H](Oc2ccnc(COc3ccc(F)cc3F)n2)CCN1Cc1nc2ccc(C(=O)O)cc2n1C[C@@H]1CCO1 [Compound 485, 2-{[(2S,4S)-4-({2-[(2,4-difluorophenoxy)methyl]pyrimidin-4-yl}oxy)-2-methylpiperidin-1-yl]methyl}-1-{[(2S)-oxetan-2-yl]methyl}-1H-1,3-benzodiazole-6-carboxylic acid]
> 7.30	C[C@H]1C[C@@H](Oc2ccnc(COc3ccc(Cl)cc3C#N)n2)CCN1Cc1nc2ccc(C(=O)O)cc2n1C[C@@H]1CCO1 [Compound 489, 2-{[(2S,4S)-4-({2-[(4-chloro-2-cyanophenoxy)methyl]pyrimidin-4-yl}oxy)-2-methylpiperidin-1-yl]methyl}-1-{[(2S)-oxetan-2-yl]methyl}-1H-1,3-benzodiazole-6-carboxylic acid]
> 7.30	N#Cc1ccc(OCc2cc(OC3CCN(Cc4nc5ccc(C(=O)O)cc5n4C[C@@H]4CCO4)CC3)cnn2)c(F)c1 [Compound 491, 2-{[4-({6-[(4-cyano-2-fluorophenoxy)methyl]pyridazin-4-yl}oxy)piperidin-1-yl]methyl}-1-{[(2S)-oxetan-2-yl]methyl}-1H-1,3-benzodiazole-6-carboxylic acid]
> 7.30	C[C@H]1C[C@@H](Oc2nc(COc3ccc(F)cc3C#N)ncc2F)CCN1Cc1nc2ccc(C(=O)O)cc2n1C[C@@H]1CCO1 [Compound 492, 2-{[(2S,4S)-4-({2-[(2-cyano-4-fluorophenoxy)methyl]-5-fluoropyrimidin-4-yl}oxy)-2-methylpiperidin-1-yl]methyl}-1-{[(2S)-oxetan-2-yl]methyl}-1H-1,3-benzodiazole-6-carboxylic acid]
> 7.30	C[C@H]1C[C@@H](Oc2nc(COc3ccc(C#N)cc3F)ncc2F)CCN1Cc1nc2ccc(C(=O)O)cc2n1C[C@@H]1CCO1 [Compound 493, 2-{[(2S,4S)-4-({2-[(4-cyano-2-fluorophenoxy)methyl]-5-fluoropyrimidin-4-yl}oxy)-2-methylpiperidin-1-yl]methyl}-1-{[(2S)-oxetan-2-yl]methyl}-1H-1,3-benzodiazole-6-carboxylic acid]
> 7.30	O=C(O)c1cc(F)c2nc(CN3CCC(Oc4ccnc(COc5cc(F)c(F)cc5F)n4)CC3)n(C[C@@H]3CCO3)c2c1 [Compound 494, 4-fluoro-1-{[(2S)-oxetan-2-yl]methyl}-2-{[4-({2-[(2,4,5-trifluorophenoxy)methyl]pyrimidin-4-yl}oxy)piperidin-1-yl]methyl}-1H-1,3-benzodiazole-6-carboxylic acid]
> 7.30	O=C(O)c1ccc2nc(CN3CCC(Oc4ccnc(COc5cc(F)c(F)cc5F)n4)CC3)n(C[C@@H]3CCO3)c2c1 [Compound 495, 1-{[(2S)-oxetan-2-yl]methyl}-2-{[4-({2-[(2,4,5-trifluorophenoxy)methyl]pyrimidin-4-yl}oxy)piperidin-1-yl]methyl}-1H-1,3-benzodiazole-6-carboxylic acid]
> 7.30	O=C(O)c1cc(F)c2nc(CN3CCC(Oc4ccnc(COc5ccc(F)cc5F)c4)CC3)n(C[C@@H]3CCO3)c2c1 [Compound 496, 2-{[4-({2-[(2,4-difluorophenoxy)methyl]pyridin-4-yl}oxy)piperidin-1-yl]methyl}-4-fluoro-1-{[(2S)-oxetan-2-yl]methyl}-1H-1,3-benzodiazole-6-carboxylic acid]
> 7.30	C[C@H]1C[C@@H](Oc2ccnc(COc3ccc(F)cc3F)c2)CCN1Cc1nc2ccc(C(=O)O)cc2n1C[C@@H]1CCO1 [Compound 497, 2-{[(2S,4S)-4-({2-[(2,4-difluorophenoxy)methyl]pyridin-4-yl}oxy)-2-methylpiperidin-1-yl]methyl}-1-{[(2S)-oxetan-2-yl]methyl}-1H-1,3-benzodiazole-6-carboxylic acid]
> 7.30	Cc1cc(C(=O)O)cc2c1nc(CN1CCC(Oc3ccnc(COc4ccc(C#N)cc4F)c3)CC1)n2C[C@@H]1CCO1 [Compound 499, 2-{[4-({2-[(4-cyano-2-fluorophenoxy)methyl]pyridin-4-yl}oxy)piperidin-1-yl]methyl}-4-methyl-1-{[(2S)-oxetan-2-yl]methyl}-1H-1,3-benzodiazole-6-carboxylic acid]
> 7.30	Cc1cc(C(=O)O)cc2c1nc(CN1CCC(Oc3ccnc(COc4ccc(F)cc4C#N)n3)CC1)n2C[C@@H]1CCO1 [Compound 500, 2-{[4-({2-[(2-cyano-4-fluorophenoxy)methyl]pyrimidin-4-yl}oxy)piperidin-1-yl]methyl}-4-methyl-1-{[(2S)-oxetan-2-yl]methyl}-1H-1,3-benzodiazole-6-carboxylic acid]
> 7.30	C[C@H]1C[C@@H](Oc2ccnc(COc3ccc(C#N)cc3F)c2)CCN1Cc1nc2c(F)cc(C(=O)O)cc2n1C[C@@H]1CCO1 [Compound 501, 2-{[(2S,4S)-4-({2-[(4-cyano-2-fluorophenoxy)methyl]pyridin-4-yl}oxy)-2-methylpiperidin-1-yl]methyl}-4-fluoro-1-{[(2S)-oxetan-2-yl]methyl}-1H-1,3-benzodiazole-6-carboxylic acid]
> 7.30	N#Cc1cc(F)c(OCc2nccc(OC3CCN(Cc4nc5c(F)cc(C(=O)O)cc5n4C[C@@H]4CCO4)CC3)n2)cc1F [Compound 502, 2-{[4-({2-[(4-cyano-2,5-difluorophenoxy)methyl]pyrimidin-4-yl}oxy)piperidin-1-yl]methyl}-4-fluoro-1-{[(2S)-oxetan-2-yl]methyl}-1H-1,3-benzodiazole-6-carboxylic acid]
> 7.30	Cc1cc(C(=O)O)cc2c1nc(CN1CC[C@H](Oc3ccnc(COc4ccc(C#N)cc4F)c3)C[C@@H]1C)n2C[C@@H]1CCO1 [Compound 503, 2-{[(2S,4S)-4-({2-[(4-cyano-2-fluorophenoxy)methyl]pyridin-4-yl}oxy)-2-methylpiperidin-1-yl]methyl}-4-methyl-1-{[(2S)-oxetan-2-yl]methyl}-1H-1,3-benzodiazole-6-carboxylic acid]

Structure (SMILES)	pEC50
N#Cc1ccc(OCc2nccc(O[C@@H]3C[C@H]4CC[C@@H](C3)N4Cc3nc4ccc(C(=O)O)cc4n3C[C@@H]3CCO3)n2)c(F)c1 [Compound 487, 2-{[(1R,3S,5S)-3-({2-[(4-cyano-2-fluorophenoxy)methyl]pyrimidin-4-yl}oxy)-8-azabicyclo[3.2.1]octan-8-yl]methyl}-1-{[(2S)-oxetan-2-yl]methyl}-1H-1,3-benzodiazole-6-carboxylic acid]	6.30 to 7.30

From patent US20230089073A1 (Carmot Therapeutics, Inc., priority 2021, published 2023)
